Calls of active or inactive are those of the source.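 The calls were made as follows: active = compound whose fitted growth curve, scaled so untreated is 0 and control 100, reaches 40 within the tested doses; inconclusive = flat curve between 30 and 70 percent, or unreliable fit; inactive = the rest, including drops in growth.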

The test concerns S. cerevisiae GAL-BEM3 growth rescue, OD600, 48 h. Kind of test: yeast growth restoration under BEM3 overexpression – S. cerevisiae, dry powder, plate reader, dose response (AID 602280).

`O=c1c2ccccc2[nH]c(=S)n1CCC1=CCCCC1`: the AC40 was 22 µM.
To `CC(C)c1ccc(C2NC(=O)c3ccccc3O2)cc1` (centres undefined) belongs 2.3 µM.
To `Cc1ccccc1CSc1nsc(N)n1` belongs > 26 µM (inactive); to `Fc1cc(NCc2ccccc2)nc(NCc2ccccc2)n1`, 8.75 µM.

Source of the values: PubChem BioAssay AID602280 (Broad Institute, 2012).
